Data taken from patent US20240368605A1, “USE OF SPLICE SWITCHING OLIGONUCLEOTIDES FOR EXON SKIPPING-MEDIATED KNOCKDOWN OF PIM2” (INSTITUT NATIONAL DE LA SANTÉ ET DE LA RECHERCHE MÉDICALE, priority 2021, published 2024).

Tests used:
Type in all cases: cell-based, human
PIM1 = PIM1 expression after SSO-PIM2 treatment; conditions: 2 μM
[1] = tested on: IRF4, PRDM1, XBPIS, BACH2, BCL6, SPIB, IRF8 and PAX5; test: Transcription factor mRNA relative expression in generated PBs; conditions: SSO-PIM2 present
Procedure: FIG. 1. Specific PIM2 inhibition affects the generation of plasmablasts • A. Diagram explaining SSO-PIM2 action. It binds to the second exon of the gene PIM2 leading in a skip of this exon during transcription and finally results to a frame shift and created an early stop-codon during translation. The protein is so a non-functional truncated protein. • B. Activated B cells were treated at D4 with an increasing dose of SSO-PIM2 and SSO-CTL (control condition) and recovered 48 hours later (at D6). PIM2 mRNA residual expression compared to the control condition adjust at 100% (mean±SD, n=3) and agarose gel of PIM2 PCR, showing exon skipping. • C. At D4, activated B cells were treated with SSO-PIM2 and SSO-CTL (control condition) at 2 μM. CD23+ aBC and PB were sorted at D6. PIM2 mRNA relative expression (mean±SD, n=4) (left) and PIM2 protein expression by western blot (middle) and immunofluorescence (right) after PIM2 inhibition. • D-E. Decrease of PB generation after PIM2 inhibition. Cells were treated with SSO-PIM2 at 2 μM (D) or increase dose of the PIM inhibitor AZD1208 (PIMi as indicated, in μM) (E) and their control condition (SSO-CTL and DMSO respectively). The untreated condition is referred as “NT” (=no treatment). Left: Absolute number of PB obtained at D6 after PIM2 inhibition. […] Right: Proportion of PB evaluated at D6 by flow cytometry after treatment with SSO-PIM2 at 2 μM. […]

PBs = test: Mitochondria/Caspase 3-driven apoptosis and viability of PBs; conditions: PBs
Excerpt: Mitochondrial-driven cell death is activated once the mitochondria lose the ability to maintain the inner membrane potential, resulting in the release of proapoptotic proteins into the cytosol. Commitment towards PBs is sustained by an extensive reconfiguration of the epigenetic landscape and of gene expression patterns, both showing that the most prominent function involves cell death and survival (Caron et al., 2015). […] We then investigated the different cell subsets generated through the differentiation model at the protein level for factors involved in apoptosis triggered by mitochondria (data not shown). The PBs compared to all other subsets increased the expression of pBAD and XIAP, both proteins counteract the apoptotic pathway and were described in PIM2-induced survival effect (data not shown) (Fox, 2003; Macdonald et al., 2006; Yan et al., 2003). In accordance with this finding and despite a strong increase in procaspase 3 protein (32 kDa size), PBs decrease the autocatalytic activity of Caspase 3 and therefore the production of p19/p17 apoptosis executors as highlighted by the low levels of cleaved PARP (data not shown) (Ponder and Boise, 2019). […] In addition, we found in P2/CD23+ cells a complete degradation of PARP which illustrate the fact that the apoptosis process is consubstantially associated with the B cell terminal differentiation if cells are not otherwise protected (data not shown).
We then inhibited PIM2 which led to an intense activation of Caspase 3 and a decrease of viability of PBs. The latter was rescued by the Caspase 3 inhibitor Q-DEVD-OPH (data not shown).
The differentiation of immature monocytes is associated with a relocalization of nuclear p21^Cip1/WAF1 to the cytoplasm where the protein participates to apoptosis blockage (Asada, 1999). In addition, Suzuki et al. ascribed the formation of a Procaspase 3/p21^Cip1/WAF1 complex in the context of resistance to Fas-mediated cell death owing to the phosphorylation of p21 by protein kinase A (Suzuki et al., 2000). We wanted therefore to explore whether p21^Cip1/WAF1 may bind Procaspase 3 and developed to this end a FRET approach which detected a signal of energy transfer compatible with such physical interaction. […] We then confirmed the binding between p21^Cip1/WAF1 and Caspase 3 in XG21 cells and in PBs by IP (data not shown). Finally, to confirm the anti-apoptotic role of cytoplasmic p21^Cip1/WAF1 in PBs we inhibited p21^Cip1/WAF1 expression by a siRNA targeting CDKN1A in in vitro D4 B cells (data not shown) and found an activation of the execution of apoptosis characterized by the detection of the p17-fragment cleavage of caspase 3 in parallel to the cleavage of PARP (data not shown) and similar results were found in XG21 cells (data not shown). […] The role of PIM2 is to stabilize p21^Cip1/WAF1 protein in the cytoplasm allowing therefore the formation a multiprotein complex which inhibits Caspase 3 full activation (data not shown).

With “5′-CCTCATGACGGATACCTGGAGTC-3′ (all phosphorodiamidate morpholino (PMO)) [SSO-PIM2]” the “effect on PIM1 expression” value (PIM1) was “without affecting PIM1 expression”, the “expression of key transcription factors involved in B cell differentiation in generated PBs” value [1] was “not affected” and the “cleaved PARP protein” value (PBs) was “production of cleaved PARP protein”. The mitochondrial depolarization (PBs) was “strong mitochondrial depolarization” and the “pBAD and XIAP protein” value (PBs) was “decrease of pBAD and XIAP”.
